Counter-ions that a name gives are not always drawn. Like-named read-outs stand apart in the source and are kept apart here.
Columns and labels:
[1] = system: phosphodiesterase (PDE) types; details: PDE type(s) in brackets after the name; cited from earlier work
[2] = system: human multiple myeloma cells (MM.1S); assay: Anti-proliferation assay (ATPLite, 72 h); type: cell-based; parameters: key to synergy score / synergy (score), PDEi × HE-NECA: S = lnfX·lnfY·ΣIdata(Idata−ILoewe), volume over Loewe additivity; details: for inhibition at 0.256 µM / inhibition at 0.767 µM / inhibition at 2.3 µM / inhibition at 6.9 µM / inhibition at 20.7 µM: Homo sapiens, MM1.S, read-out: percent inhibition of ATP in MM.1S cells; for inhibition at 0.256 µM: Papaverine 0.256 μM; for inhibition at 0.767 µM: Papaverine 0.767 μM; for inhibition at 2.3 µM: Papaverine 2.3 μM; for inhibition at 6.9 µM: Papaverine 6.9 μM; for inhibition at 20.7 µM: Papaverine 20.7 μM
Procedure: (§1) ANBL6 and INA-6 culture media was also supplemented with 10 ng/ml IL-6. […] MM.1S, MM.1R, OCI-ly10, Karpas 422, and SU-DHL6 cells were provided by the Dana Farber Cancer Institute. H929, RPMI-8226, GA-10, and Farage cells were from ATCC (Cat #'s CCL-155, CRL-9068, CRL-2392 and CRL-2630 respectively). MOLP-8, EJM, KSM-12-PE, and OPM2 were from DSMZ. The ANBL6 and INA-6 cell lines were provided by the M. D. Anderson Cancer Research Center. Compounds were prepared in DMSO at 1000× the highest desired concentration. Master plates were generated consisting of serially diluted compounds in 2- or 3-fold dilutions in 384-well format. For single agent dose response curves, the master plates consisted of 9 individual compounds at 12 concentrations in 2- or 3-fold dilutions. For combination matrices, master plates consisted of individual compounds at 6 or 9 concentrations at 2- or 3-fold dilutions. […] To obtain combination data, two master plates were diluted into the assay plates. […] Thirty microliters of ATPLite (Perkin Elmer) at room temperature was then added to each well. […] Measurements were taken at the top of the well using a luminescence aperture and a read time of 0.1 seconds per well. The percent inhibition (% I) for each well was calculated using the following formula: % I=[(avg. untreated wells-treated well)/(avg. untreated wells)]×100. […] Negative inhibition values result from local variations in treated wells as compared to untreated wells. […] The uncertainty of each fitted parameter was estimated from the range over which the change in reduced chi-squared was less than one, or less than minimum reduced chi-squared if that minimum exceeded one, to allow for underestimated σI errors. Single agent curve data were used to define a dilution series for each compound to be used for combination screening in a 6×6 matrix format. […] The Loewe additivity model was used to quantify combination effects. […] A “Synergy Score” was also used, where the Synergy Score S=log fX log fY ΣIdata(Idata-ILoewe), summed over all non-single-agent concentration pairs, and where log fX,Y is the natural logarithm of the dilution factors used for each single agent. This effectively calculates a volume between the measured and Loewe additive response surfaces, weighted towards high inhibition and corrected for varying dilution factors. An uncertainty σS was calculated for each synergy score, based on the measured errors for the Idata values and standard error propagation.

[3] = system: H929 multiple myeloma cell line; assay: Anti-proliferation assay (ATPLite, 72 h); type: cell-based, human; parameters: key: S = lnfX·lnfY·ΣIdata(Idata−ILoewe), volume over Loewe additivity
Procedure: as §1

[4] = system: RPMI-8226 multiple myeloma cell line; assay: Anti-proliferation assay (ATPLite, 72 h); type: cell-based, human; parameters: key: S = lnfX·lnfY·ΣIdata(Idata−ILoewe), volume over Loewe additivity
Procedure: as §1

[5] = system: human multiple myeloma cells (MM.1R); assay: Anti-proliferation assay (ATPLite, 72 h); type: cell-based; parameters: key: S = lnfX·lnfY·ΣIdata(Idata−ILoewe), volume over Loewe additivity
Procedure: as §1

[6] = system: human multiple myeloma cells (MM.1R) transfected with siRNA; assay: Anti-proliferation assay after siRNA transfection; type: cell-based; details: MM.1R, siRNA targeting PDE 2A, HE-NECA 0 nM
Procedure: siRNA to adenosine receptor A1, A2A, A3, PDE 2A, PDE 3B, PDE 4B, PDE 4D and PDE 7A, and control siRNA siCON were purchased from Dharmacon. A2B siRNA was purchased from Invitrogen. Electroporations were performed using an Amaxa Nucleoporator (program S-20) and solution V. siRNAs were used at 50 nM. […] RNA was isolated using Qiagen RNAeasy kits, and targets quantified by RT-PCR using gene specific primers purchased from Applied Biosystems.
Cells were added to 384-well plates 24 hours prior to compound addition such that each well contained 2000 cells in 35 μL of media. Master plates were diluted 100× (1 μL into 100 μL) into 384-well dilution plates containing only cell culture media. 4.5 μL from each dilution plate was added to each assay plate for a final dilution of 1000×. To obtain combination data, two master plates were diluted into the assay plates. Following compound addition, assay plates were kept at 37° C. and 5% CO2 for 72 hours. Thirty microliters of ATPLite (Perkin Elmer) at room temperature was then added to each well. Final amount of ATP was quantified within 30 minutes using ATPLite luminescent read-out on an Envision 2103 Multilabel Reader (Perkin Elmer). Measurements were taken at the top of the well using a luminescence aperture and a read time of 0.1 seconds per well.
We also examined the antiproliferative activity of adenosine receptor agonists when the MM cell line MM.1R was transfected with siRNA targeting the A1, A2A, A2B or A3 receptor. Specific gene silencing (A1, A2A, A2B, or A3) was greater than 50% as determined by real time PCR analysis 48 hours post-transfection. At 48 hours post-transfection, cells were exposed to adenosine receptor agonist, incubated an additional 72 hours, and compounds assayed for antiproliferative activity. Representative data is in Table 34. Cells transfected with adenosine receptor siRNA or a control siRNA (scrambled sequences designed so that cellular transcriptsare not targeted) were treated with the adenosine receptor agonist ADAC. […] Similar results were obtained with a second siRNA with specificity for different region of the A2A receptor mRNA, confirming that the reduction in adenosine receptor agonist activity is the result of specific siRNA targeting of the A2A receptor (data not shown).
In our experiments, PDE gene silencing was always greater than 50% as confirmed by real time PCR analysis 48 hours post-transfection. At 48 hours post-transfection, cells were exposed to adenosine receptor agonist and PDE inhibitor, incubated an additional 72 hours, and compounds assayed for antiproliferative activity. Representative data is in Tables 39-45. For each analysis, the activity of cells transfected with an siRNA targeting a specific PDE was compared to cells transfected with a control non-targeting siRNA (siCON).

[7] = PDE inhibitor crossed with (S) ENBA, MM.1S
[8] = PDE inhibitor crossed with (S) ENBA, H929
[9] = PDE inhibitor crossed with Chloro-IB-MECA, H929
[10] = PDE inhibitor crossed with Chloro-IB-MECA, MM.1S
[11] = in combination with adenosine receptor agonist HE-NECA, RPMI-8226
[12] = PDE inhibitor crossed with ADAC, H929
[13] = PDE inhibitor crossed with HE-NECA, H929
[14] = in combination with adenosine receptor agonist HE-NECA, H929
[15] = 10 ng/mL IL-6, HE-NECA conc. (μM)
[16] = PDE inhibitor crossed with ADAC, MM.1S
[17] = PDE inhibitor crossed with HE-NECA, MM.1S
[18] = in combination with adenosine receptor agonist HE-NECA, MM.1S

Compound | PDE inhibitors (specificity) [1] | synergy score [2, 7] | synergy score [3, 8] | synergy score [3, 9] | synergy score [2, 10] | synergy score [3, 12] | synergy score [3, 13] | synergy score [2, 16] | synergy score [2, 17] | further results
CC(C)Cn1c(=O)n(C)c(=O)c2[nH]cnc21 [IBMX] | IBMX (pan) | 0.055 | – | – | – | – | – | – | – | –
Nc1nc(N)nc(-c2cc(Cl)ccc2Cl)n1 [Irsogladine] | Irsogladine (4) | 0.38 | 0.09 | 0.05 | 0.25 | – | – | – | – | –
COc1ccc(Cc2nccc3cc(OC)c(OC)cc23)cc1OC [Papaverine hydrochloride, 1-[(3.4-dimethoxyphenyl)-methyl]-6,7-dimethoxyisoquinolone] | – | 2.24 | 0.77 | 1.42 | 2.67 | 1.19 | 1.03 | 3.55 | 2.09 | synergy score ([4]; in combination with adenosine receptor agonist ADAC, RPMI-8226): 1.158; synergy score [4, 11]: 0.3933; synergy score ([3]; in combination with adenosine receptor agonist ADAC, H929): 1.193; synergy score [3, 14]: 1.025; synergy score ([5]; in combination with adenosine receptor agonist ADAC, MM.1R): 3.395; synergy score ([5]; in combination with adenosine receptor agonist HE-NECA, MM.1R): 2.128; inhibition at 0.256 µM [2, 15]: -2.4%; inhibition at 0.767 µM [2, 15]: -0.1%; inhibition at 2.3 µM [2, 15]: 7.9%; inhibition at 6.9 µM [2, 15]: 46%; inhibition at 20.7 µM [2, 15]: 70%; inhibition at 0.256 µM ([2]; no IL-6, HE-NECA conc. (nM)): 9.1%; inhibition at 0.767 µM ([2]; no IL-6, HE-NECA conc. (nM)): 8.8%; inhibition at 2.3 µM ([2]; no IL-6, HE-NECA conc. (nM)): 23%; inhibition at 6.9 µM ([2]; no IL-6, HE-NECA conc. (nM)): 46%; inhibition at 20.7 µM ([2]; no IL-6, HE-NECA conc. (nM)): 68%; synergy score ([2]; in combination with adenosine receptor agonist ADAC, MM.1S): 3.554; synergy score [2, 18]: 2.087
CC(=O)CCCCn1c(=O)c2c(ncn2C)n(C)c1=O [Pentoxifylline] | Pentoxifylline (pan) | 0.49 | 0.02 | 0.02 | 0.05 | – | 0.09 | – | 0.29 | –
COc1ccc([C@@H]2CNC(=O)C2)cc1OC1CCCC1 [R-(−)-Rolipram] | – | – | – | – | – | – | – | – | – | synergy score ([4]; in combination with adenosine receptor agonist CGS-21680, RPMI 8226): 2.03; synergy score [4, 11]: 1.16; synergy score ([4]; in combination with adenosine receptor agonist regadenoson, RPMI 8226): 0.63; synergy (score), PDEi × HE-NECA ([3]; 6×6 cross of PDE inhibitor or PDE inhibitor mixture with HE-NECA, H929): 1.88; synergy score ([3]; in combination with adenosine receptor agonist CGS-21680, H929): 1.93; synergy score [3, 14]: 2.148; synergy score ([3]; in combination with adenosine receptor agonist regadenoson, H929): 1.91; Antiproliferative activity ([6]; R-(−)-Rolipram 0.23 μM): 3.8; Antiproliferative activity ([6]; R-(−)-Rolipram 2 μM): 8.1; Antiproliferative activity ([6]; R-(−)-Rolipram 6.1 μM): 5.3; Antiproliferative activity ([6]; R-(−)-Rolipram 18 μM): 7.7; Antiproliferative activity ([6]; R-(−)-Rolipram […]): −1.2; synergy score ([5]; in combination with adenosine receptor agonist CGS-21680, MM.1R): 4.54; synergy score ([5]; in combination with adenosine receptor agonist regadenoson, MM.1R): 3.62; synergy (score), PDEi × HE-NECA ([2]; 6×6 cross of PDE inhibitor or PDE inhibitor mixture with HE-NECA, MM.1S): 2.33; synergy score ([2]; in combination with adenosine receptor agonist CGS-21680, MM.1S): 1.92; synergy score [2, 18]: 2.965; synergy score ([2]; in combination with adenosine receptor agonist regadenoson, MM.1S): 1.83
CN/C(=N\c1ccc(C2=NNC(=O)CC2C)cc1)NC#N (stereo not drawn) [Siguazodan] | Siguazodan (3) | 1.39 | 0.13 | 0.09 | 0.42 | – | 0.08 | – | 0.72 | –
CCOC(=O)C1=C[C@]2(CC)CCCN3CCc4c(n1c1ccccc41)[C@@H]32 [Vinoceptine] | Vinoceptine (1) | 0.25 | 0.21 | – | – | 0.01 | 0 | 0.02 | 0.26 | –
Cc1[nH]c(=O)c(C#N)cc1-c1ccncc1 [milrinone] | Milrinone (3) | 1.31 | – | 0.08 | 0.25 | – | 0.15 | – | 0.33 | –
(R)-Rolipram | (R)-Rolipram (4) | 2.08 | 0.82 | 0.63 | 0.84 | 0.51 | 2.51 | 0.97 | 4.38 | –

Reference: patent US20090047243A1, “COMBINATIONS FOR THE TREATMENT OF B-CELL PROLIFERATIVE DISORDERS” (priority 2007, published 2009)
